The source of these data is patent US20260365684A1, “PHYTOSPHINGOSINE-3,4-CYCLICPHOSPHATE COMPOUND AND PHARMACEUTICAL COMPOSITION COMPRISING THE SAME” (AXCESO BIOPHARMA CO., LTD., priority 2022, published 2026).

As a reminder, the EC50 is the concentration at which the effect is half-maximal.

Structures are written as SMILES.

In one test the test system is C57BL/6 mice. In words: Survival in sepsis induced by cecal ligation and puncture (CLP). The test is classed as in vivo, mouse. As to conditions: 100 ng/mouse (5 μg/kg) at 6 and 16 hours after CLP; FIG. 8. As for the experimental part: C57BL/6 mice aged 7-8 weeks were purchased from Jabio (Suwon, Gyeonggi-do) and sepsis was induced by cecal ligation and puncture (CLP).
Specifically, after anesthesia using 150 mg/kg of ketamine and 17.5 mg/kg of rompun, an abdominal incision of 1-2 cm was made to expose the cecum to induce sepsis. The cecum was ligated with 6-0 silk sutures at the distal end of the ileocecal valve, and a puncture was made with an 18-gauge needle. The perforated cecum was gently squeezed to push out 1-2 cm of feces, and the cecum was then retracted back into the abdominal cavity. The abdomen was then closed and pre-warmed normal saline (2.5 mL/100 g body weight) was injected into the mouse abdominal cavity immediately after the procedure. 6 and 16 hours after CLP treatment, the compound of formula (1a-1) was dissolved in phosphate buffered saline (PBS) and injected intravenously at 100 ng/mouse (5 μg/kg), and survival was examined for 10 days. […] In addition, as a drug-negative control, survival was examined in mice that received only PBS after CLP treatment.
For comparison, we also examined the survival of a control group treated with fingolimod (FTY720), a known S1P modulator, instead of the compound of formula (1a-1) under the same conditions.

A further test has as its system SIRT1. Particulars: known value; read-out: EC50 as SIRT1 activator; cited from earlier work.
In test [1] the test system is tyrosine hydroxylase (TH). Description: Tyrosine hydroxylase expression in differentiated SH-SY5Y dopaminergic neurons by western blot. In kind it is cell-based, human. Particulars: differentiated dopaminergic neurons treated with rotenone (RT); FIG. 6. The procedure: (§1) To analyze the effect on the expression of tyrosine hydroxylase (TH) and α-synuclein as neuron-specific proteins, western blot was performed.
(§2) SH-SY5Y cell line was treated with retinoic acid and 12-O-tetradecanoylphorbol-13-acetate (TPA) to induce differentiation into TH-secreting neurons for 6 days.
(§3) Differentiated dopaminergic neurons were lysed in PRO-PREP (Intronbio), a cell lysis solution containing protease inhibitor cocktail (Gendepot), and electrophoresed in 10% SDS polyacrylamide gels at 20 μg/well. Transfer was performed using PVDF (Merck millipore) as a membrane, and tyrosine hydroxylase antibody, «-synuclein antibody (Cell signaling), and β-actin antibody (Santa Cruz) were used for reaction for more than 2 hours. Protein expression was detected by staining with ECL substrate (Biorad) for development and graphed using the image J program.
On the technique in general: A western blot detects proteins with antibodies after separation by electrophoresis.

The test system of a further test is α-synuclein. Description: α-synuclein expression in differentiated SH-SY5Y dopaminergic neurons by western blot. In kind it is cell-based, human. As to conditions: differentiated dopaminergic neurons treated with rotenone (RT); FIG. 6. The procedure: as §1, §2, §3

Regarding `CCCCCCCCc1ccc(CCC(N)(CO)CO)cc1` [FTY720, fingolimod, reference compound], in the test on C57BL/6 mice, the survival result was “did not improve survival”.
For `Oc1ccc(C=Cc2cc(O)cc(O)c2)cc1` [resveratrol], in the test on SIRT1, the EC50 is […].
In the case of `C=C(C)[C@H]1Cc2c(ccc3c2O[C@@H]2COc4cc(OC)c(OC)cc4[C@@H]2C3=O)O1` [rotenone, reference compound], the “expression of TH” value in test [1] was “the expression of TH is decreased”. Further, in the test on α-synuclein, the “expression of α-synuclein” value is “the expression of α-synuclein is increased”.
